Measurements as given in patent publication US6127375A, “4,4-disubstituted-3,4-dihydro-2(1H)-quinazolinthiones useful as HIV reverse transcriptase inhibitors” (Dupont Pharmaceuticals Company, priority 1999, dated 2000).
Converted amounts (≈) assume the structure as drawn.

Tested on: HIV-1 (RF)
Experiment: HIV RNA Assay: Microplate Based Compound Evaluation in HIV-1 Infected MT-2 Cells
Type: cell-based
Conditions: Human immunodeficiency virus 1, MT2, 72 h; HIV-1 (RF) in MT-2 cells, 3 days at 37° C.; value to which virus inoculum was standardized (~3×10^5 PFU per assay well); read-out: IC90 value (concentration of compound required to reduce the HIV RNA level by 90%)
Protocol: Plasmid pDAB 72 containing both gag and pol sequences of BH10 (bp 113-1816) cloned into PTZ 19R was prepared according to Erickson-Viitanen et al. AIDS Research and Human Retroviruses 1989, 5, 577. The plasmid was linearized with Bam HI prior to the generation of in vitro RNA transcripts using the Riboprobe Gemini system II kit (Promega) with T7 RNA polymerase. Synthesized RNA was purified by treatment with RNase free DNAse (Promega), phenol-chloroform extraction, and ethanol precipitation. RNA transcripts were dissolved in water, and stored at -70° C. The concentration of RNA was determined from the A260.
Biotinylated capture probes were purified by HPLC after synthesis on an Applied Biosystems (Foster City, Calif.) DNA synthesizer by addition of biotin to the 5' terminal end of the oligonucleotide, using the biotin-phosphoramidite reagent of Cocuzza, Tet. Lett. 1989, 30, 6287. […]
MT-2 and MT-4 cells were maintained in RPMI 1640 supplemented with 5% fetal calf serum (FCS) for MT-2 cells or 10% FCS for MT-4 cells, 2 mM L-glutamine and 50 μg/mL gentamycin, all from Gibco. […] Infectious titers of HIV-1(RF) stocks were 1-3×10^7 PFU (plaque forming units)/mL as measured by plaque assay on MT-2 cells (see below). […]

Nc1ccn([C@H]2CC[C@@H](CO)O2)c(=O)n1 [ddC, 2',3'-dideoxycytidine]
IC90: 0.2 µg/mL (≈ 0.947 µM)
